Results: publication PMC5656322, “BAK1 is involved in AtRALF1-induced inhibition of root cell expansion” (PLoS Genetics, 2017)
Where no end group is shown, it is not given here.

Key:
cell suspensions = settings: cited from earlier work
[1] = test system: Arabidopsis endodermic root cells; test: Root cell length, endodermis of differentiation zone; format: in vivo, Arabidopsis thaliana; settings: 10 μM, 2 days
Experimental: (A) and (B) Arabidopsis seedlings (2 days old) were treated with 10 μM AtRALF1 or water (H20) for 2 days. The values are the mean ± SD of at least 25 seedlings. Triple asterisks indicate P < 0.01 (Student’s t test); ns, not significant. (C) Four-day-old seedlings were transferred to media containing different concentrations of AtRALF1, and the primary root length was measured after 8 days of treatment. The data represent the mean value ± SD of 30 seedlings. […] Representative Arabidopsis seedlings after 8 days of treatment with AtRALF1 are shown below. Seedlings were arranged on plates after the treatment for imaging. Scale bars, 1 cm. (D) Two-day-old seedlings were treated with 10 μM AtRALF1 or water for 2 days, and root cell length was measured after 2 days of treatment. Cells from the root endodermis in the differentiation zone were measured. The values are the mean ± SD of approximately 150 cells. […]
Aliquots of 1 ml of medium containing seeds were distributed into 24-well plates. The peptides (10 μM) were added after 2 days, and the root length was measured 2 days after treatment. […] The root length was measured 8 days after treatment unless stated otherwise. […] Quantitative data were obtained as previously described. […] For cell length measurements, AtRALF1 peptide (10 μM) was added after 2 days of germination, and the cell length was measured after 2 days of treatment. […]

BAK1-GFP = test: Co-immunoprecipitation with microsomal fraction of N. benthamiana leaves expressing BAK1-GFP; format: binding, Arabidopsis thaliana; settings: 600 nM peptide, 1 h, 4 °C, anti-GFP antibody
Experimental: This assay was performed as previously described with some modifications. The BAK1 coding region was amplified from Arabidopsis genomic cDNA using standard PCR with the primers BAK1 Fw and BAK1 Rv (S1 Table). To generate the p35S-BAK1:GFP plasmid, the fragment was cloned into the pENTR D-TOPO vector and later transferred to the pk7FWG2 vector [56]. Leaves from N. benthamiana plants were agroinfiltrated with p19 vector alone and p19 co-expressed with p35S-BAK1:GFP, as previously described. After 3 days, leaves were homogenized in extraction buffer [300 mM sucrose, 100 mM Tris-HCl pH 7.5, 25 mM EDTA, 25 mM NaF, 1 mM Na2MoO4, 1 mM PMSF, 1 mM DTT and protease inhibitor cocktail (Roche), pH 6.2 adjusted] and centrifuged at 1,000 g for 10 min at 4°C, and the supernatant was then centrifuged at 100,000 g for 50 min at 4°C to precipitate the microsomal pellet. The pellet was resuspended in the extraction buffer plus 0.5% Triton-X and incubated with 600 nM recombinant AtRALF1 or 600 nM RALF1(I6A) for 1 h at 4°C. The complexes were incubated with anti-GFP antibody (Santa Cruz Biotechnology) and Sepharose Beads plus protein A (Life Technologies) overnight at 4°C. […] The AtRALF1/BAK1-GFP complex bound to the beads was eluted with denaturing in 10 μl of 1X loading buffer (NuPAGE LDS buffer) at 95°C for 8 min, then analyzed by SDS-PAGE. The proteins were detected as previously described.

AtRALF1: root-specific RALF isoform in Arabidopsis; recombinant peptide hormone produced in E. coli (ATTKYISYQSLKRNSVPCSRRGASYYNCQNGAQANPYSRGCSKIARCRS; ends and bridges not checked; cysteine pairing not given here)
alkalinization of the extracellular media (cell suspensions; ref [1],[11]): induces a rapid alkalinization of the extracellular media of cell suspensions
alkalinization of the extracellular medium (cell suspensions; ref [5]): alkalinizes the extracellular medium of cell suspensions
root cell length vs water-treated control ([1]; bak1-1, bak1-3, bak1-4): showed no difference between AtRALF1-treated plants and the water-treated control
reduction of root cell length vs water-treated control ([1]; wild-type, ~150 cells): 58%
co-immunoprecipitation with BAK1-GFP (BAK1-GFP): co-immunoprecipitated when the anti-GFP antibody was used
